Assay results: US12060349B2, “Glucosylceramide synthase inhibitors” (Genzyme Corporation, priority 2012, dated 2024)
Like-named read-outs stand apart in the source and are kept apart here.

What was measured:
B16 mouse melanoma cells = experiment: cell viability in the B16 cell-based assay (Viability, B16 IC50)
In short: (§1)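 Viability readouts were run alongside the GM3 cell-surface assay in the same B16 and C32 cultures. A figure above 10 indicates no cell death.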

C32 human melanoma cells = experiment: cell viability in the C32 cell-based assay (Viability, C32 IC50); conditions: concentration causing 50% cell death, values greater than 10 represent a lack of cell death
In short: as §1

[1] = test system: GM3 expression on the cell surface, B16 mouse melanoma cells; experiment: cell based phenotypic assay, cell surface GM3 by antibody mediated immunofluorescence, B16 (GM3 B16 IC50); conditions: 50% inhibition of GM3 expression on the cell surface
In short: (§2)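 Two melanoma lines, mouse B16 and human C32, were treated and surface GM3 quantified by antibody immunofluorescence for IC50. A parallel viability readout gives the concentration killing 50% of cells, with values over 10 indicating no cell death.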

[2] = test system: GM3 expression on the cell surface, C32 human melanoma cells; experiment: cell based phenotypic assay, cell surface GM3 by antibody mediated immunofluorescence, C32 (GM3 C32 IC50); conditions: 50% inhibition of GM3 expression on the cell surface
In short: as §2

[3] = biological target: T1, glucosylceramide synthase (Homo sapiens, UniProt Q16739); experiment: microsomal assay measuring conversion of ceramide to glucosylceramide by HPLC (GCS IC50); format: biochemical; conditions: concentration causing 50% inhibition of glucosylceramide synthase activity
T1 construct: Microsomes were isolated from A375 human melanoma cells; endogenous in cells; host or cells: A375 human melanoma cells (microsomal fraction, 100,000 g pellet)
T1 sequence (Q16739 1-394): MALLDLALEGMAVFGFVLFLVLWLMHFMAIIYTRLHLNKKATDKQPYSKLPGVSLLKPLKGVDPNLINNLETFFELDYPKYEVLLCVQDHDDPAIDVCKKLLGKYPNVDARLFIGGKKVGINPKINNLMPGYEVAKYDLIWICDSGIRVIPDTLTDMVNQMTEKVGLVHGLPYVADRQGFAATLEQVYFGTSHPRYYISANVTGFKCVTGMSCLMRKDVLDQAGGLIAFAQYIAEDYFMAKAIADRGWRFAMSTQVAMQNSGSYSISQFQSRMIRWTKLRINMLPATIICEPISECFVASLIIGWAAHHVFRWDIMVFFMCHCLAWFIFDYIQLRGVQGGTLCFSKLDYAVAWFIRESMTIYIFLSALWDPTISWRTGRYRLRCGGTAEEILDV
In short: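 IC50 is the compound concentration halving glucosylceramide synthase activity. Activity was measured in microsomes, with HPLC quantifying glucosylceramide formed from ceramide.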

[4] = Mus musculus, B16, B16 cells, concentration causing 50% cell death, values greater than 10 represent a lack of cell death, read-out: Viability, B16 IC50
[5] = Homo sapiens, C32, C32 cells, read-out: Viability, C32 IC50
[6] = Mus musculus, B16 mouse melanoma cells, read-out: GM3 B16 IC50
[7] = Homo sapiens, C32 human melanoma cells, read-out: GM3 C32 IC50
[8] = B16 mouse melanoma cells, read-out: GM3 B16 IC50
[9] = C32 human melanoma cells, read-out: GM3 C32 IC50

Molecule | IC50 (B16 mouse melanoma cells; [4]) [nM] | IC50 (C32 human melanoma cells; [5]) [nM] | IC50 [1, 6] [nM] | IC50 [2, 7] [nM] | IC50 [3] [nM] | IC50 [1, 8] [nM] | IC50 [2, 9] [nM] | IC50 (B16 mouse melanoma cells; Mus musculus, B16, read-out: Viability, B16 IC50) [nM] | IC50 (C32 human melanoma cells; Homo sapiens, C32, read-out: Viability, C32 IC50, C32 cells) [nM] | IC50 ([1]; Mus musculus, read-out: GM3 B16 IC50, B16 mouse melanoma cells) [nM] | IC50 ([2]; Homo sapiens, read-out: GM3 C32 IC50, C32 human melanoma cells) [nM] | IC50 (B16 mouse melanoma cells; B16 cells, concentration causing 50% cell death, values greater than 10 represent a lack of cell death, read-out: Viability, B16 IC50) [nM] | IC50 (C32 human melanoma cells; C32 cells, read-out: Viability, C32 IC50) [nM]
O=C(OC1CC2CCN(CC2)C1)N1CCN(c2cccc(-c3ccccc3)c2)CC1 (centres unmarked) [Example 20, 1-Azabicyclo[3.2.2]nonan-3-yl 4-([1,1′-biphenyl]-3-yl)piperazine-1-carboxylate] | 7710 | ≥ 15100 | 4470 | 10700 | 16600 | – | – | – | – | – | – | – | –
COCCOc1ccc(-c2ccc(C(C)(C)NC(=O)OC3CCN4CCC3CC4)nc2)cc1 (single isomer, unassigned) [Example 348, 1-Azabicyclo[3.2.2]nonan-4-yl 2-(5-(4-(2-methoxyethoxy)phenyl)pyridin-2-yl)propan-2-ylcarbamate] | ≥ 10000 | 1000 | – | – | 27.8 | 87.2 | 3.52 | – | – | – | – | – | –
CC(C)(NC(=O)NC1(C)CN2CCC1CC2)c1ccc(-c2ccc(OCCn3cccn3)cc2)cc1 (centres unmarked) [Example 180, 1-(2-(4′-(2-(1H-Pyrazol-1-yl)ethoxy)-[1,1′-biphenyl]-4-yl)propan-2-yl)-3-(3-methylquinuclidin-3-yl)urea] | 3160 | 3160 | 46.3 | 1.81 | 5.3 | – | – | – | – | – | – | – | –
CC(C)(NC(=O)OC1CCN2CCC1CC2)c1ccc(-c2ccc(OCCCn3ccnn3)cc2)cc1 (centres unmarked) [Example 187, 1-Azabicyclo[3.2.2]nonan-4-yl (2-(4′-(3-(1H-1,2,3-triazol-1-yl)propoxy)-[1,1′-biphenyl]-4-yl)propan-2-yl)carbamate] | ≥ 10000 | 1000 | 106 | 7.74 | 20.2 | – | – | – | – | – | – | – | –
CC1(NC(=O)C2CCN(c3ncc(F)c(-c4ccc(F)cc4)n3)CC2)CN2CCC1CC2 (centres unmarked) [Example 54, 1-(5-Fluoro-4-(4-fluorophenyl)pyrimidin-2-yl)-N-(3-methylquinuclidin-3-yl)piperidine-4-carboxamide] | 5130 | 8040 | 106 | 0.0902 | 0.734 | – | – | – | – | – | – | – | –
CC1(NC(=O)N2CCN(c3ccc(-c4ccccc4)cc3)CC2)CN2CCC1CC2 (centres unmarked) [Example 1, 4-([1,1′-Biphenyl]-4-yl)-N-(3-methylquinuclidin-3-yl)piperazine-1-carboxamide] | 7160 | ≥ 10000 | 1260 | 109 | 719 | – | – | – | – | – | – | – | –
CC1(NC(=O)C2(F)CCN(c3nccc(Oc4ccc(F)cc4)n3)CC2)CCN2CCC1CC2 (centres unmarked) [Example 116, 4-Fluoro-1-(4-(4-fluorophenoxy)pyrimidin-2-yl)-N-(4-methyl-1-azabicyclo[3.2.2]nonan-4-yl)piperidine-4-carboxamide] | 5720 | 100 | 15.9 | 0.155 | 1.43 | – | – | – | – | – | – | – | –
CC(C)(NC(=O)OC1CN2CCC1CC2)c1ccc(-c2ccc(C(=O)N3CCC(F)(F)CC3)cc2)cc1 (centres unmarked) [Example 270, Quinuclidin-3-yl 2-(4′-(4,4-difluoropiperidine-1-carbonyl)biphenyl-4-yl)propan-2-ylcarbamate] | – | – | – | – | 25 | – | – | ≥ 10000 | 1000 | 67 | 3.56 | – | –
4-([1,1′-Biphenyl]-3-yl)-3-methyl-N-(4-methyl-1-azabicyclo[3.2.2]nonan-4-yl)piperazine-1-carboxamide [Example 32] | – | – | – | – | 544 | 462 | 46.5 | – | – | – | – | 7290 | 3160
COCCOc1ccc(-c2ccc(C(C)(C)NC(=O)N3CCN4CCC3CC4)cc2)cc1 [Example 161, N-(2-(4′-(2-Methoxyethoxy)-[1,1′-biphenyl]-4-yl)propan-2-yl)-1,4-diazabicyclo[3.2.2]nonane-4-carboxamide] | 3160 | 3160 | 311 | 32.7 | 250 | – | – | – | – | – | – | – | –
